Holding throughout (assay): growth of human tumour cells (NCI), 48 h
The subject of test [1] is ACHN renal.
Test [2] concerns CAKI-1 renal.
Test [3] concerns CCRF-CEM leukemia.
For test [4], the system named is EKVX NSCLC.
The test system of test [5] is MOLT-4 leukemia.
For test [6], the system named is RPMI-8226 leukemia.
The subject of test [7] is TK-10 renal.
In test [8] the test system is U251 CNS.
The test system of test [9] is UACC-257 melanoma.

Each structure is given as a SMILES string.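 Grown in 96-well plates, cells were treated for 48 hours with each compound at five concentrations. Insufficient inhibition: endpoint recorded as highest concentration tested. The concentration for 50% growth inhibition is given as GI50. At the TGI there is no net growth.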

With `Cc1cc(NCCCCNc2ccnc3cc(Cl)ccc23)nc(Nc2ccc(C(=O)N3CCCCC3)cc2)n1`, the GI50 is 3.01 µM in [1]; 1.75 µM in test [2]; 0.608 µM in test [3]; 2.97 µM in test [4]; 1.71 µM in [5]; 0.239 µM in test [6]. The GI50 is 2.11 µM in test [7], 1.78 µM in test [8] and 1.89 µM in test [9]. Besides, the TGI in test [1] was found to be 9.28 µM; in [2], 3.47 µM; in test [3], 7.55 µM; in test [4] it was 10.8 µM; in [5] it was 7.13 µM; in test [6] it was 1.04 µM. For the same compound, the values for the TGI in [7], in [8] and in test [9] were 4.13 µM, 3.56 µM and 3.42 µM, respectively.

On to `NC(CCc1ncc(C(=O)O)s1)C(=O)O` (stereo not drawn), for which the TGI in [1], in test [2], in test [3], in test [4], in test [5] and in test [6] was > 100 µM throughout. Moreover, the TGI in test [7], in test [8] and in test [9] was > 100 µM throughout.

With `O=C(NC1CCCCC1)c1ccc(Nc2ncnc3c2cnn3-c2ccccc2)cc1`, the GI50 in test [1] was 3.32 µM; in [2] it was 14 µM; in test [3], > 100 µM; in [5] it was 75.6 µM; in test [6], > 100 µM; in test [7], 16.5 µM. Moreover, the GI50 in test [9] is 6.42 µM. Moreover, the TGI is 11 µM in [1]; > 100 µM in test [2]; > 100 µM in test [3]; > 100 µM in test [5]; > 100 µM in test [6]; 49.5 µM in [7]. Besides, in test [9], the TGI was > 100 µM.

On to `Cc1sc2c(c1C)C(c1ccc(Cl)cc1)=N[C@@H](CC(=O)Nc1ccc(OCCOCCOCCOCCNc3cccc4c3C(=O)N(C3CCC(=O)NC3=O)C4=O)cc1)c1nnc(C)n1-2` (stereo partly drawn), for which the GI50 in test [1] was 0.753 µM; in [3] it was < 0.0222 µM; in [4], 0.409 µM; in test [6] it was < 0.0175 µM; in test [7] it was 0.189 µM; in test [8], 0.476 µM. For the same compound, the GI50 in test [9] was 10.6 µM. The TGI in test [1] is > 100 µM; in test [3], > 100 µM; in test [4] it was > 100 µM; in [6], > 100 µM; in test [7], > 43.7 µM; in test [8], > 100 µM. Besides, the TGI in test [9] is > 100 µM.

Consider `C=C1C(O)C2C(=C(C)C13CC3)C(=O)C(C)(C)C2OC` (stereo not drawn), for which the GI50 in test [1] is > 100 µM; in [2] it was 71.8 µM; in test [3], 78.3 µM; in [4], > 100 µM; in test [5] it was 38.6 µM; in [6] it was 41.3 µM. Also, the GI50 in test [7] was > 100 µM; in test [8], > 100 µM; in test [9], 44.4 µM. The TGI in test [1], in test [2], in test [3], in test [4], in test [5] and in [6] was > 100 µM throughout. Further, the TGI in [7], in test [8] and in test [9] was > 100 µM each time.

For `COc1cc(C(=O)O[C@H](C(N)=O)[C@]2(C)CO2)c2cccc(C)c2c1`, the GI50 in [2] was < 0.0211 µM; in test [4] it was 0.35 µM; in test [7], < 0.0406 µM; in test [9], 1.49 µM. The TGI was 5.94 µM in test [3], 4.61 µM in [4] and > 21.3 µM in [9].

`COc1ccc(/C=C/c2cnccn2)cc1OC`: the TGI in test [1], in test [2], in [4], in [7], in [8] and in test [9] was > 10 µM throughout.

Regarding `CN(C)CCNc1nc2ccccc2c2c(=O)c3cc(F)ccc3sc12`, the GI50 in test [1] is 1.65 µM; in test [2], 1.58 µM; in test [3] it was 2.22 µM; in test [6] it was 2.3 µM; in test [7], 1.76 µM; in test [9] it was 2.12 µM. For the same compound, the TGI worked out at 3.01 µM in test [1]; 2.93 µM in test [2]; 5 µM in test [3]; 5.18 µM in [6]; 3.33 µM in [7]; 4.16 µM in test [9].

As to `Cc1ccc2[c](c1)[Sn]([c]1ccccc1)([c]1ccccc1)[c]1cc(C)ccc1N2C`, the GI50 in [1] is 66.8 µM; in test [4] it was 41.4 µM; in test [7], > 100 µM; in [8], 87.5 µM; in test [9] it was 57.8 µM. Moreover, the TGI in test [1], in test [4], in test [7], in test [8] and in test [9] was > 100 µM each time.

The record behind these values is PubChem BioAssay (NCI).
